Patent publication US12129235B2, “TSPO binders” (The University Court of the University of Glasgow, priority 2018, dated 2024)

Molecular target: TSPO (Homo sapiens, UniProt P30536)
Assay: ^18F-LW223 human autoradiography (stroke and diseased coronary tissue)
Format: binding
Parameters: Paraffin embedded human deep brain stoke tissue and diseased coronary tissue sections; from tissue; host or cells: human deep brain stroke tissue and diseased coronary tissue sections
Excerpt: Slides were washed twice with buffer before being air dried and exposed to a Fujifilm BAS-IP MS 2040 phosphor screen (Fujifilm, Japan). Phosphor screens were imaged on a Fujifilm FLA5100 imaging plate reader (Fujifilm, Japan). Global regions of interest were drawn around whole tissue sections to calculate % SB. To calculate target:non-target ratios, regional sampling analysis was used within the same tissue in the highest and lowest uptake areas.

TSPO, sequence (P30536 whole entry): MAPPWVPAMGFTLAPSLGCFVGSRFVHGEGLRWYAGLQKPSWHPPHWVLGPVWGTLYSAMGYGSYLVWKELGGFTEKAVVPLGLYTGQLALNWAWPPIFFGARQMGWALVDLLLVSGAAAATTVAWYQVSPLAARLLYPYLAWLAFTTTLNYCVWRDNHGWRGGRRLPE

blocking of ^18F-LW223 binding (deep brain stroke tissue, blocking with PK11195 30 μM): could not be sufficiently blocked
target:non-target ratio (diseased coronary tissue): 4.5
% specific binding (% SB) (diseased coronary tissue, blocking with LW223 10 μM): 88.1±3.4%
% specific binding (% SB) (diseased coronary tissue, blocking with PK11195 10 μM): 75.3±3.2%
target:non-target ratio (stroke tissue): 7.5
% specific binding (% SB) (stroke tissue, blocking with LW223 10 μM): 42.5±7.0%
Compound: CC[C@@H](C)N(C)C(=O)c1nc2ccccc2c(-c2ccccc2)c1C[18F] [^18F-LW223, (R)-(N-sec-Butyl)-3-[19-fluoro]-methyl-N-methyl-4-phenylquinoline-2-carboxamide]
